Assay results taken from US20240158446A1, “CYCLIC COMPOUND HAVING SELECTIVE INHIBITORY ACTION ON KRAS OVER HRAS AND NRAS” (CHUGAI SEIYAKU KABUSHIKI KAISHA, priority 2021, published 2024).
Like-named read-outs stand apart in the source and are kept apart here. *1 amine or outer side, *2 acyl side, *3 side chain or, on linkers, in order; H or OH if unused. Where a SMILES comes first, the peptide text is derived from it. Bridges are numbered along the chain shown (N, C = ends). [ ]: non-standard residue; d: D form. The star is where a group is joined. hPhe(3-Cl-4-CF3) = N[C@@H](CCc1ccc(C(F)(F)F)c(Cl)c1)C(=O)O; NPrPhe(4-CF3) = CCCN[C@@H](Cc1ccc(C(F)(F)F)cc1)C(=O)O; X3 = CCCN([C@H](C(=O)[*:2])C1CCCC1)[*:1]; NMeGly(cPent) = CN[C@H](C(=O)O)C1CCCC1; NMeD = CN[C@@H](CC(=O)O)C(=O)O; NMeL = CN[C@@H](CC(C)C)C(=O)O; Morpholide = C1CN(*)CCO1; NMeA = CN[C@@H](C)C(=O)O; Ac5c = NC1(C(=O)O)CCCC1; Aze = O=C(O)[C@@H]1CCN1; NEtG = CCNCC(=O)O; Sar = CNCC(=O)O

What was measured:
[1] = target: GDP-bound KRAS wild-type protein (Homo sapiens, UniProt P01116); assay: Binding to KRAS by surface plasmon resonance (SPR), Single Cycle Kinetics; details: GDP-bound KRAS wild-type protein
[2] = target: GDP-bound NRAS wild-type protein (Homo sapiens, UniProt P01111); assay: Binding to NRAS by surface plasmon resonance (SPR), Single Cycle Kinetics; details: for NRAS/KRAS (ratio of KD value with respect to GDP-bound NRAS wild-type protein to KD value with respect to KRAS): SPR KD ratio NRAS/KRAS, class symbols
[3] = target: GDP-bound HRAS wild-type protein (Homo sapiens, UniProt P01112); assay: Binding to HRAS by surface plasmon resonance (SPR), Single Cycle Kinetics; details: for HRAS/KRAS (ratio of KD value with respect to GDP-bound HRAS wild-type protein to KD value with respect to KRAS): SPR KD ratio HRAS/KRAS, class symbols
[4] = test system: human lung cancer strain NCI-H441;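 note: cell proliferation inhibition after four days measured by CellTiter-Glo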
[5] = SPR, Single Cycle Kinetics, 1:1 binding model, read-out: KRAS KD
[6] = SPR, GDP-bound NRAS wild-type protein vs GDP-bound KRAS wild-type protein, KD ratio class
[7] = SPR, GDP-bound HRAS wild-type protein vs GDP-bound KRAS wild-type protein, KD ratio class
[8] = SPR Single Cycle Kinetics, 1:1 binding model, read-out: KRAS KD
[9] = SPR, Single Cycle Kinetics, read-out: KRAS KD
[10] = SPR, GDP-bound NRAS wild-type protein vs GDP-bound KRAS wild-type protein
[11] = SPR, GDP-bound HRAS wild-type protein vs GDP-bound KRAS wild-type protein

GDP-bound KRAS wild-type protein, sequence (P01116 whole entry): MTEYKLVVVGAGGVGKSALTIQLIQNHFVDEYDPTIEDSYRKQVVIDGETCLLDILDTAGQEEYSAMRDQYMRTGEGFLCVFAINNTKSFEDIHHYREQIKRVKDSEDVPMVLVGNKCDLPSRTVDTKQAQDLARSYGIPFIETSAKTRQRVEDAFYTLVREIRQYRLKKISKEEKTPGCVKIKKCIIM
GDP-bound HRAS wild-type protein, sequence (P01112 whole entry): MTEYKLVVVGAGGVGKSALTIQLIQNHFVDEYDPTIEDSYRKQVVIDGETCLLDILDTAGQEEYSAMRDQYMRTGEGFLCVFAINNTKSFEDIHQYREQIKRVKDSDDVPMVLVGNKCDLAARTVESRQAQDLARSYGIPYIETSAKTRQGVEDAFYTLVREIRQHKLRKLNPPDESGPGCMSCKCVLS
GDP-bound NRAS wild-type protein, sequence (P01111 whole entry): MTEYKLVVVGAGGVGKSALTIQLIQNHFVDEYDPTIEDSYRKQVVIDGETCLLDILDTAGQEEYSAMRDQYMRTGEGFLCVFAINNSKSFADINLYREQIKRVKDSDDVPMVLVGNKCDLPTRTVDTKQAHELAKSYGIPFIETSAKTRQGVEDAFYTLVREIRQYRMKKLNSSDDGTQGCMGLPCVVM

Structure (SMILES)	Kd [1, 5] [M]	NRAS/KRAS (ratio of KD value for NRAS to KD value for KRAS) [2, 6]	HRAS/KRAS (ratio of KD value for HRAS to KD value for KRAS) [3, 7]	IC50 [4] [nM]	Kd [1, 8] [M]	NRAS/KRAS (ratio of KD value for NRAS to KD value for KRAS) [2, 10]	HRAS/KRAS (ratio of KD value for HRAS to KD value for KRAS) [3, 11]	further results
CCO[C@@H]1C[C@H]2C(=O)NC3(CCC3)C(=O)N(C)[C@@H](C3CCCC3)C(=O)N(C)[C@H](C(=O)N3CCOCC3)CC(=O)N(C)[C@@H](CC)C(=O)N[C@@H]([C@@H](C)CC)C(=O)N(C)CC(=O)N(C)[C@H]3CC[C@@H](C)CN(C3=O)[C@@H](Cc3ccc(C(F)(F)F)cc3)C(=O)N(C)CC(=O)N[C@@H](CCc3cc(F)c(C(F)(F)F)c(F)c3)C(=O)N2C1 [PP1372]	7.8e-11	B (a compound having 3 or more and less than 10 is denoted as B)	B (a compound having 3 or more and less than 10 is denoted as B)	5				
CCCCCC[C@H]1C(=O)N[C@@H]([C@@H](C)CC)C(=O)N(C)CC(=O)N(C)[C@H]2C/C=C\CCN(C2=O)[C@@H](Cc2ccc(C(F)(F)F)cc2)C(=O)N(C)CC(=O)N[C@@H](CCc2cc(F)c(C(F)(F)F)c(F)c2)C(=O)N2C[C@H](OCC)C[C@H]2C(=O)NC2(CCC2)C(=O)N(C)[C@@H](C2CCCC2)C(=O)N(C)[C@H](C(=O)N(C)C)CC(=O)N1C [PP1242, (2S,8S,12R,14S,20S,23S,27S,30S,36S,38Z)-20-cyclopentyl-8-[2-[3,5-difluoro-4-(trifluoromethyl)phenyl]ethyl]-12-ethoxy-27-hexyl-N,N,4,19,22,26,32,35-octamethyl-30-[(1S)-1-methylpropyl]-3,6,9,15,18,21,25,28,31,34,42-undecaoxo-2-[[4-(trifluoromethyl)phenyl]methyl]spiro[1,4,7,10,16,19,22,26,29,32,35-undecazatricyclo[34.5.1.0^10,14]dotetracont-38-ene-17,1′-cyclobutane]-23-carboxamide]	7.6e-11	A (a compound having 10 or more and less than 20 is denoted as A)	A (a compound having 10 or more and less than 20 is denoted as A)	12.8				
CCC(CC)[C@H]1C(=O)N(C)[C@H](C(=O)N(C)C)CC(=O)N(C)[C@@H](COC)C(=O)N[C@@H]([C@@H](C)CC)C(=O)N2CCC[C@H]2C(=O)N(C)[C@H]2C/C=C\CCN(C2=O)[C@@H](Cc2ccc(C(F)(F)F)cc2)C(=O)N(C)CC(=O)N[C@@H](CCc2ccc(Cl)c(Cl)c2)C(=O)N2C[C@H](OC3CCCC3)C[C@H]2C(=O)NC2(CC(C)(C)C2)C(=O)N1C [PP2651]				147	1.9e-09			NRAS/KRAS (ratio of KD value with respect to GDP-bound NRAS wild-type protein to KD value with respect to KRAS) [2]: AA (a compound having 20 or more is denoted as AA); HRAS/KRAS (ratio of KD value with respect to GDP-bound HRAS wild-type protein to KD value with respect to KRAS) [3]: A (a compound having 10 or more and less than 20 is denoted as A)
CC[C@H](C)[C@@H]1NC(=O)[C@H](CC(C)C)N(C)C(=O)C[C@@H](C(=O)N(C)CC)N(C)C(=O)[C@H](C2CCCC2)N(C)C(=O)C2(CC(C)(C)C2)NC(=O)[C@@H]2C[C@H](C)CN2C(=O)[C@H](CCc2cc(F)c(C(F)(F)F)c(F)c2)NC(=O)CN(C)C(=O)[C@H](Cc2ccc(C)cc2)N2CC/C=C\C[C@@H](C2=O)N(C)C(=O)[C@@H]2CCCN2C1=O [PP2411]				91.4		A (a compound having 10 or more and less than 20 is denoted as A)	A (a compound having 10 or more and less than 20 is denoted as A)	Kd [1, 9]: 1e-09 M
CCCN1C(=O)CN(C)C(=O)CN(CC)C(=O)[C@H]([C@@H](C)CC)NC(=O)[C@H](CC(C)C)N(C)C(=O)C[C@@H](C(=O)N(C)C)N(C)C(=O)[C@H](C2CCCC2)N(C)C(=O)C2(CCCC2)NC(=O)[C@@H]2CCCN2C(=O)[C@H](CCc2ccc(C(F)(F)F)c(Cl)c2)NC(=O)CN(C)C(=O)[C@@H]1Cc1ccc(C(F)(F)F)cc1 [PP0423] ([NMeL]I[NEtG][Sar][NPrPhe(4-CF3)][Sar][hPhe(3-Cl-4-CF3)]P[Ac5c][NMeGly(cPent)][NMeD]-NMe2; lactam N-11)				7.1	1.8e-10			NRAS/KRAS (ratio of KD value with respect to NRAS to KD value with respect to KRAS) [2, 10]: B (a compound having 3 or more and less than 10 is denoted as B); HRAS/KRAS (ratio of KD value with respect to HRAS to KD value with respect to KRAS) [3, 11]: C (A compound having a KD ratio of 0.1 or more and less than 3 is denoted as C)
CC[C@H](C)[C@@H]1NC(=O)[C@H](COC)N(C)C(=O)C[C@@H](C(=O)N(C)C)N(C)C(=O)[C@H](C2CCCCC2)N(C)C(=O)C2(CC(C)(C)C2)NC(=O)[C@@H]2C[C@@H](OC3CCCC3)CN2C(=O)[C@H](CCc2cc(F)c(C(F)(F)F)c(F)c2)NC(=O)CN(C)C(=O)[C@H](Cc2ccc(C(F)(F)F)cc2)N2CC/C=C\C[C@@H](C2=O)N(C)C(=O)CN(C)C1=O [PP2656]				22.5	3.1e-10			NRAS/KRAS (ratio of KD value with respect to GDP-bound NRAS wild-type protein to KD value with respect to KRAS) [2]: A (a compound having 10 or more and less than 20 is denoted as A); HRAS/KRAS (ratio of KD value with respect to GDP-bound HRAS wild-type protein to KD value with respect to KRAS) [3]: B (a compound having 3 or more and less than 10 is denoted as B)
CCCN1C(=O)[C@@H]2CCN2C(=O)[C@H](C)N(C)C(=O)[C@H]([C@@H](C)CC)NC(=O)[C@H](CC(C)C)N(C)C(=O)C[C@@H](C(=O)N2CCOCC2)N(C)C(=O)[C@H](C2CCCC2)N(C)C(=O)C2(CCCC2)NC(=O)[C@@H]2CCCN2C(=O)[C@H](CCc2ccc(C(F)(F)F)c(Cl)c2)NC(=O)CN(C)C(=O)[C@@H]1C1CCCC1 [PP0054] ([NMeL]I[NMeA][Aze][X3][Sar][hPhe(3-Cl-4-CF3)]P[Ac5c][NMeGly(cPent)][NMeD]-Morpholide; lactam N-11)				82		C (A compound having a KD ratio of 0.1 or more and less than 3 is denoted as C)	C (A compound having a KD ratio of 0.1 or more and less than 3 is denoted as C)	Kd ([1]; KRAS KD (M), SPR Single Cycle Kinetics, 1:1 binding model): 4.5e-09 M
CCO[C@@H]1C[C@H]2C(=O)NC3(CCC3)C(=O)N(C)[C@@H](C(CC)CC)C(=O)N(C)[C@H](C(=O)N(C)C)CC(=O)N(C)[C@@H](CC3CC3)C(=O)N[C@@H]([C@@H](C)CC)C(=O)N(C)CC(=O)N(C)[C@H]3C/C=C\CCN(C3=O)[C@@H](Cc3ccc(C(F)(F)F)cc3)C(=O)N(C)CC(=O)N[C@@H](CCc3cc(F)c(C(F)(F)F)c(F)c3)C(=O)N2C1 [PP1203]	2.3e-10	A (a compound having 10 or more and less than 20 is denoted as A)	A (a compound having 10 or more and less than 20 is denoted as A)	20.8				
CCO[C@@H]1C[C@H]2C(=O)NC3(CCC3)C(=O)N(C)[C@@H](C3CCCC3)C(=O)N(C)[C@H](C(=O)N3CCOCC3)CC(=O)N(C)[C@@H](CC3CCC3)C(=O)N[C@@H]([C@@H](C)CC)C(=O)N(C)CC(=O)N(C)[C@H]3C/C=C\CCN(C3=O)[C@@H](Cc3ccc(C(F)(F)F)cc3)C(=O)N(C)CC(=O)N[C@@H](CCc3cc(F)c(C(F)(F)F)c(F)c3)C(=O)N2C1 [PP1422]	2.2e-10	AA (a compound having 20 or more is denoted as AA)	A (a compound having 10 or more and less than 20 is denoted as A)	14.1				
CCC(CC)[C@H]1C(=O)N(C)[C@H](C(=O)N(C)C)CC(=O)N(C)[C@@H](COC)C(=O)N[C@@H]([C@@H](C)CC)C(=O)N2CCC[C@H]2C(=O)N(C)[C@H]2C/C=C\CCN(C2=O)[C@@H](Cc2ccc(C(F)(F)F)cc2)C(=O)N(C)CC(=O)N[C@@H](CCc2ccc(Cl)c(Cl)c2)C(=O)N2C[C@H](OC(C)C)C[C@H]2C(=O)NC2(CC(C)(C)C2)C(=O)N1C [PP2639]				81.6	1.1e-09			NRAS/KRAS (ratio of KD value with respect to GDP-bound NRAS wild-type protein to KD value with respect to KRAS) [2]: AA (a compound having 20 or more is denoted as AA); HRAS/KRAS (ratio of KD value with respect to GDP-bound HRAS wild-type protein to KD value with respect to KRAS) [3]: A (a compound having 10 or more and less than 20 is denoted as A)
CCCOC[C@H]1C(=O)N[C@@H]([C@@H](C)OCC)C(=O)N(C)CC(=O)N(C)[C@H]2C/C=C\CCN(C2=O)[C@@H](Cc2ccc(C)cc2)C(=O)N(C)CC(=O)N[C@@H](CCc2cc(F)c(C(F)(F)F)c(F)c2)C(=O)N2C[C@@H](C)C[C@H]2C(=O)NC2(CC(C)(C)C2)C(=O)N(C)[C@@H](C2CCCC2)C(=O)N(C)[C@H](C(=O)N(C)CC)CC(=O)N1C [PP2424]				50.9		A (a compound having 10 or more and less than 20 is denoted as A)	A (a compound having 10 or more and less than 20 is denoted as A)	Kd [1, 9]: 3.7e-10 M
CCO[C@@H]1C[C@H]2C(=O)NC3(CCC3)C(=O)N(C)[C@@H](C3CCCC3)C(=O)N(C)[C@H](C(=O)N(C)C)CC(=O)N(C)[C@@H](Cc3cccs3)C(=O)N[C@@H]([C@@H](C)CC)C(=O)N(C)CC(=O)N(C)[C@H]3CCCCCN(C3=O)[C@@H](Cc3ccc(F)cc3)C(=O)N(C)CC(=O)N[C@@H](CCc3cc(F)c(C(F)(F)F)c(F)c3)C(=O)N2C1 [PP1197]				14.8		B (a compound having 3 or more and less than 10 is denoted as B)	B (a compound having 3 or more and less than 10 is denoted as B)	Kd [1, 9]: 9.6e-11 M
